In US11384060B2, “Amide compounds and use thereof” (ALPHALA CO., LTD., priority 2017, dated 2022):

Tests used:
glucagon receptor (GCGR) = molecular target: T1, glucagon receptor (GCGR) (Homo sapiens, UniProt P47871); assay: I125-glucagon binding assay (competition, GCGR membrane fractions); details: competition with I125-glucagon 0.0625 nM, membrane fractions of GCGR overexpressed CHO-K1 cells
T1 construct: expressed in transfected cells; host or cells: CHO-K1 cells overexpressing GCGR (membrane fractions)
Description: I^125-Glucagon Binding Assay
The binding affinity of each compound was evaluated by a competition assay with I^125-glucagon. GCGR membrane fractions were obtained from GCGR overexpressed CHO-K1 cells as a stock of 1 mg/ml concentration. To evaluate the IC50 of compounds binding to GCGR, GCGR membrane fractions were treated with compounds with a serial dilution. The membrane fractions were diluted to 7.5 microgram per well in 70 microliter assay buffer contained 50 mM Tris pH 7.4 and 0.5% (w/v) bovine serum albumin and added into 96 wells plate. The membrane fractions were then mixed with 10 microliter diluted compounds. After 5 minutes pre-incubation, 20 microliter I^125 labeled glucagon (Perkin Elmer) was added into each well at the final concentration of 0.0625 nM. The assay mixtures were incubated at 25° C. for 30 minutes and then transferred onto the Millipore MultiScreen GF/B Plate coated with 0.5% (w/v) Polyethyleneimine. The filter plate was washed with wash buffer contained 50 mM Tris pH 7.4 for 2 times, 300 microliter each time. The residual isotope was detected by Hidex CHAMELEON V micro-beta counter and the IC50 value of each compound binding to GCGR was calculated with non-linear regression.

[1] = molecular target: T2, glucagon receptor (GCGR) overexpressed CHO-K1 cells or human primary hepatocytes (Homo sapiens, UniProt P47871); assay: Glucagon cAMP inhibition assay (Cisbio cAMP Dynamic 2 HTRF); format: cell-based; details: inhibition of glucagon (EC50 concentration) induced cAMP production
T2 construct: expressed in transfected cells; host or cells: GCGR overexpressed CHO-K1 cells or human primary hepatocytes (endogenous receptor)
Description: Glucagon cAMP Inhibition Assay
Downstream secondary messenger cAMP induced by glucagon was detected by Cisbio cAMP Dynamic 2 kit. Testing compounds were each prepared as a dimethyl sulfoxide (DMSO) solution at the concentration of 10 mM. To evaluate the potency of compounds in inhibiting the cAMP production, glucagon receptor (GCGR) overexpressed CHO-K1 cells or human primary hepatocytes were treated with compounds with a serial dilution. The cells were re-suspended in Hank's Balanced Salt solution (HBSS) contained 0.1% (w/v) bovine serum albumin and 800 nM 3-isobutyl-1-methylxanthine (IBMX) and seeded into low volume, 384 wells white plate. The diluted compounds were then added into the plate for 30 minutes pre-incubation where the final DMSO concentration was 1%. The cells were stimulated with glucagon at the concentration equaled to EC50 (an indicium of the concentration of a drug that gives half-maximal response) for 30 minutes at room temperature. After incubation, lysis buffer contain cAMP antibody and fluorescence acceptor were added into each well for additional 60 minutes incubation. Results were recorded by Molecular Devices SpectraMax Paradigm with the HTRF Detection Cartridges and the IC50 value of each compound in inhibiting the cAMP production was calculated with non-linear regression based on the amount of cAMP production.

T1 sequence (P47871 26-477): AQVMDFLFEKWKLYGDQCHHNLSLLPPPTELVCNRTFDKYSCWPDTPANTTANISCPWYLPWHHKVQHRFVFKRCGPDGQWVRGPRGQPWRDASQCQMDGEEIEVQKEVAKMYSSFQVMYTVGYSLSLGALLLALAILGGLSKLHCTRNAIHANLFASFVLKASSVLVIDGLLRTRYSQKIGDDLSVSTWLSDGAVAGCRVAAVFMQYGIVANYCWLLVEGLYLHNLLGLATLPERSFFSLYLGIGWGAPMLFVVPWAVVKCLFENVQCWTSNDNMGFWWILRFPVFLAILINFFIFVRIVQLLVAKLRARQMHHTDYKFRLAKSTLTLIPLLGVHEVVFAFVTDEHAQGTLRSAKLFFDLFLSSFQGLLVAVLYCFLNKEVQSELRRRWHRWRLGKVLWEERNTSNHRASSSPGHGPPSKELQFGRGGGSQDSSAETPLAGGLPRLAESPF
T2 sequence (P47871 26-477): as above

Compound | IC50 (glucagon receptor (GCGR)) [nM] | IC50 cAMP [1] [nM]
CC(C)[C@@H](COc1ccc(-c2ccc(N(C)C)cc2)cc1)Nc1ccc(C(=O)NCCC(=O)O)cc1 [Compound 1-12, (S)-3-(4-((1-((4′-(dimethylamino)-[1,1′-biphenyl]-4-yl)oxy)-3-methylbutan-2-yl)amino)benzamido)propanoic Acid] | 224 | 414.3
CC[C@H](C)[C@@H](COc1ccc(-c2ccc(Cl)cc2Cl)cc1)Nc1ccc(C(=O)NCc2nnn[nH]2)cc1 [Compound 1-13, N-((1H-tetrazol-5-yl)methyl)-4-(((2S,3S)-1-((2′,4′-dichloro-[1,1′-biphenyl]-4-yl)oxy)-3-methylpentan-2-yl)amino)benzamide] | 141 | 1730
CC[C@H](C)[C@@H](COc1ccc(-c2ccc(Cl)cc2Cl)cc1)Nc1ccc(C(=O)NC[C@@H](O)C(=O)O)cc1 [Compound 1-14, (R)-3-(4-(((2S,3S)-1-((2′,4′-dichloro-[1,1′-biphenyl]-4-yl)oxy)-3-methylpentan-2-yl)amino)benzamido)-2-hydroxypropanoic Acid] | 112 | 3553
CCCC[C@@H](COc1ccc(-c2ccc(C(F)(F)F)cc2)cc1)Nc1ccc(C(=O)NCCC(=O)O)cc1 [Compound 1-15, (S)-3-(4-((1-((4′-(trifluoromethyl)-[1,1′-biphenyl]-4-yl)oxy)hexan-2-yl)amino)benzamido)propanoic Acid] | 211 | 338.8
CCCC[C@@H](COc1ccc(-c2ccc(C(F)(F)F)cc2)cc1)Nc1ccc(C(=O)NCc2nnn[nH]2)cc1 [Compound 1-16, (S)—N-((1H-tetrazol-5-yl)methyl)-4-((1-((4′-(trifluoromethyl)-[1,1′-biphenyl]-4-yl)oxy)hexan-2-yl)amino)benzamide] | 52 | 948.8
CCCC[C@@H](COc1ccc(-c2ccc(Cl)cc2Cl)cc1)Nc1ccc(C(=O)NCCC(=O)O)cc1 [Compound 1-17, (S)-3-(4-((1-((2′,4′-dichloro-[1,1′-biphenyl]-4-yl)oxy)hexan-2-yl)amino)benzamido)propanoic Acid] | 34 | 864.4
CCCC[C@@H](COc1ccc(-c2ccc(Cl)cc2Cl)cc1)Nc1ccc(C(=O)NCc2nnn[nH]2)cc1 [Compound 1-18, (S)—N-((1H-tetrazol-5-yl)methyl)-4-((1-((2′,4′-dichloro-[1,1′-biphenyl]-4-yl)oxy)hexan-2-yl)amino)benzamide] | 31 | 1564
CCCC[C@@H](COc1ccc(-c2ccc(C(F)(F)F)cc2Cl)cc1)Nc1ccc(C(=O)NCCC(=O)O)cc1 [Compound 1-19, (S)-3-(4-((1-((2′-chloro-4′-(trifluoromethyl)-[1,1′-biphenyl]-4-yl)oxy)hexan-2-yl)amino)benzamido)propanoic Acid] | 11 | 93
CCCC[C@@H](COc1ccc(-c2ccc(C(F)(F)F)cc2Cl)cc1)Nc1ccc(C(=O)NCc2nnn[nH]2)cc1 [Compound 1-20, (S)—N-((1H-tetrazol-5-yl)methyl)-4-((1-((2′-chloro-4′-(trifluoromethyl)-[1,1′-biphenyl]-4-yl)oxy)hexan-2-yl)amino)benzamide] | 96 | 524
CC(C)[C@@H](COc1ccc(-c2ccc(N(C)C)cc2)cc1)Nc1ccc(C(=O)NC[C@@H](O)C(=O)O)cc1 [Compound 1-21, (R)-3-(4-(((S)-1-((4′-(dimethylamino)-[1,1′-biphenyl]-4-yl)oxy)-3-methylbutan-2-yl)amino)benzamido)-2-hydroxypropanoic Acid] | > 30000 | >30000
CC(C)[C@@H](COc1ccc(-c2ccc(C(F)(F)F)cc2Cl)cc1)Nc1ccc(C(=O)NCCC(=O)O)cc1 [Compound 1-22, (S)-3-(4-((1-((2′-chloro-4′-(trifluoromethyl)-[1,1′-biphenyl]-4-yl)oxy)-3-methylbutan-2-yl)amino)benzamido)propanoic Acid] | 70 | 14.2
